In patent publication US20200190470A1, “TEMOZOLOMIDE RESISTANT CELLS AND AN INTEGRATED METHOD FOR CHARACTERIZING THE SAME” (Council of Scientific & Industrial Research, priority 2018, published 2020):

Key:
U87MG cells = assay: TMZ dose response, MTT cell viability assay, U87MG; parameters: AUC (area under dose response curve): unit not given beside the values
[1] = tested on: NSP cells (neurospheres derived from U87MG); assay: TMZ dose response, MTT cell viability assay, neurospheres (NSP); parameters: AUC (area under dose response curve): unit not given beside the values
[2] = tested on: differentiated cells (NDx) of NSP; assay: TMZ dose response of differentiated NSP cells (NDx); settings: Homo sapiens
Description: For dose-response experiments, four replicates at ˜20,000 cells per well were plated in 96-well Nunc™ tissue culture plates in full growth medium for 24 h, treated with different doses of TMZ in serial dilutions (0.05Me5M) followed by cell viability tests using the MTT assay. Appropriate cell controls (without TMZ treatment) were used to calculate IC50.

IC50 (U87MG cells; Homo sapiens, U-87 MG): 746 µM | IC50 ([1]; Homo sapiens, U-87 MG): 1040 µM | IC50 [2]: 818 µM
SMILES: Cn1nnc2c(C(N)=O)ncn2c1=O [Temozolomide]
AUC (area under dose response curve) (U87MG cells; U87MG): 53039 | Emax (U87MG cells; U87MG): 25.53 | Log2 (Hill Slope) (U87MG cells; U87MG): −1.959 | fold resistance ratio ([1]; NSP relative to U87MG): 1.41 | AUC (area under dose response curve) ([1]; Neurospheres (NSP)): 276836 | Emax ([1]; Neurospheres (NSP)): 49.29 | Log2 (Hill Slope) ([1]; Neurospheres (NSP)): 0
